Data on ten compounds can be found in US4555518A, “Fluoroalkoxy substituted benzimidazoles useful as gastric acid secretion inhibitors” (Byk Gulden Lomberg Chemische Fabrik GmbH, priority 1983, dated 1985).

A value given as a limit tells only on which side of the number the result lay.

Experiment [1] has as its system gastric secretion (HCl) (rat stomach). The experiment can be described thus: Shay rat: inhibition of gastric secretion (HCl) in the course of 4 h. In kind it is in vivo. The settings on record: for ED25 / ED50: Rattus norvegicus, po, perorally, rats; for ED25: dose reducing HCl secretion (4 h) by 25% vs control; for ED50: dose reducing HCl secretion (4 h) by 50% vs control; for Gastric secretion (rats): % inhibition of HCl secretion: after administration of the antiulcerous ED50, perorally, 4 h. On the procedure: (§1) In these experiments, the compounds according to the invention were compared with prior art compounds (A-D) of European Patent Applications Nos. 0 005 129 and 0 074 341. The compounds investigated are numbered as follows: The influence of the compounds of the prior art and the compounds according to the invention on gastric lesion formation induced by pyloric ligature (4 h; so-called Shay rat) and oral administration of 100 mg/kg of acetylsalicyclic acid, and the gastric secretion (HCl) in the course of 4 h in rats is shown in the following table. | *ED25 and ED50 = dose which reduces the lesion index or the HCL | secretion(4h) in the rat stomach by 25 and, respectively, 50% in the | treated group in comparison with the control group. | **after administration of the antiulcerous ED50. The antiulcerogenic action was tested by the so-called Shay rat method: Ulcers are caused in rats which have been fasted for 24 hours (female, 180-200 g, 4 animals per cage on a high grid) by pyloric ligature (under diethyl ether anesthesia) and oral administration of 100 mg/10 ml/kg of acetylsalicylic acid. The substances to be tested are administered orally (10 ml/kg) one hour before the pyloric ligature. The wound is closed by means of Michel clamps. 4 hours thereafter, the animals are sacrificed under ether anesthesia by Atlas dislocation and resection of the stomach. The stomach is opened longitudinally and attached to a cork plate, after the amount of gastric juice secreted (volume) and later its HCl content (titration with sodium hydroxide solution) have first been determined; the number and size (=diameter) of the ulcers present are determined under a stereomicroscope at 10-fold magnification. The product of the degree of severity (according to the following points scale) and number of ulcers serves as the individual lesion index. The reduction in the average lesion index of each treated group compared with the control group (=100%) serves as a measure of the antiulcerogenic effect.

In experiment [2] the test system is gastric lesion formation (rat stomach). The experiment can be described thus: Shay rat: inhibition of gastric lesion formation induced by pyloric ligature and oral acetylsalicylic acid (protective effect on the stomach). Conditions: perorally, rats, 1 h before pyloric ligature, 4 h, 100 mg/kg acetylsalicylic acid, dose reducing lesion index by 50% vs control. In kind it is in vivo. The method, then: as §1, with “group.” for “group. | **after administration of the antiulcerous ED50.”

In general, ED50 refers to the midpoint of the dose-response relation. A high value points to weaker potency. Consider `COc1ccnc(C[S+]([O-])c2nc3cc(OC(F)(F)F)ccc3[nH]2)c1` (stereo not shown) [Serial No. 1, 2-[(4-methoxy-2-pyridyl)methylsulfinyl]-5-trifluoromethoxy-1H-benzimidazole], for which, in experiment [1], the ED25 came out at 0.5 mg/kg, the 50% effect level (ED50) was put at a dose of 1.1 mg/kg and the “Gastric secretion (rats): % inhibition of HCl secretion” value (“Gastric secretion (rats): % inhibition” for short) is reported as 32%. In addition, in experiment [2], it took a dose of 0.6 mg/kg to reach the 50% effect level (ED50).
The like results for `COc1ccnc(CSc2nc3cc(OC(F)(F)F)ccc3[nH]2)c1C` [Serial No. 2, 2-[(4-methoxy-3-methyl-2-pyridyl)methylthio]-5-trifluoromethoxy-1H-benzimidazole] were, in that order, 0.35 mg/kg, 0.5 mg/kg, 20% and 0.3 mg/kg.
For `COc1ccnc(C[S+]([O-])c2nc3cc(OC(F)(F)F)ccc3[nH]2)c1C` (stereo not shown) [Serial No. 3, 2-[(4-methoxy-3-methyl-2-pyridyl)methylsulfinyl]-5-trifluoromethoxy-1H-benzimidazole], in that order: under 0.3 mg/kg, 0.4 mg/kg, 32% and 0.3 mg/kg.
For `COc1cc(C[S+]([O-])c2nc3cc(OC(F)(F)F)ccc3[nH]2)ncc1C` (stereo not shown) [Serial No. 4, 2-[(4-methoxy-5-methyl-2-pyridyl)methylsulfinyl]-5-trifluoromethoxy-1H-benzimidazole], in that order: 0.6 mg/kg, 1.6 mg/kg, 32% and 0.9 mg/kg.
Consider `COc1ccnc(C[S+]([O-])c2nc3cc(OC(F)(F)C(F)F)ccc3[nH]2)c1` (stereo not shown) [Serial No. 5, 2-[(4-methoxy-2-pyridyl)methylsulfinyl]-5-(1,1,2,2-tetrafluoroethoxy)-1H-benzimidazole], for which, in experiment [1], the ED25 turned out to be 0.5 mg/kg, it took a dose of 1.2 mg/kg to reach the 50% effect level (ED50) and the “Gastric secretion (rats): % inhibition” value stood at 33%. In experiment [2], this compound returned an ED50 of 0.7 mg/kg.
For `COc1ccnc(C[S+]([O-])c2nc3cc(OC(F)(F)C(F)F)ccc3[nH]2)c1C` (stereo not shown) [Serial No. 6, 2-[(4-methoxy-3-methyl-2-pyridyl)methylsulfinyl]-5-(1,1,2,2-tetrafluoroethoxy)-1H-benzimidazole], in that order: 0.3 mg/kg, 0.7 mg/kg, 35% and 0.5 mg/kg.
For `COc1ccnc(CSc2nc3cc(OC(F)(F)C(F)F)ccc3[nH]2)c1C` [Serial No. 7, 2-[(4-methoxy-3-methyl-2-pyridyl)methylthio]-5-(1,1,2,2-tetrafluoroethoxy)-1H-benzimidazole], in that order: 0.35 mg/kg, 0.7 mg/kg, 40% and 0.5 mg/kg.
With `COc1c(C)cnc(C[S+]([O-])c2nc3cc(OC(F)(F)F)ccc3[nH]2)c1C` (stereo not shown) [Serial No. 8, 2-[(4-methoxy-3,5-dimethyl-2-pyridyl)methylsulfinyl]-5-trifluoromethoxy-1H-benzimidazole], in experiment [1], the ED25 was 1 mg/kg, the 50% effect level (ED50) was put at a dose of 1.5 mg/kg and the “Gastric secretion (rats): % inhibition” value was 20%. In experiment [2], the ED50 amounted to 0.4 mg/kg.
`COc1c(C)cnc(CSc2nc3cc(OC(F)(F)F)ccc3[nH]2)c1C` [Serial No. 9, 2-[(4-methoxy-3,5-dimethyl-2-pyridyl)methylthio]-5-trifluoromethoxy-1H-benzimidazole]: in experiment [1], the ED25 worked out at 1.4 mg/kg, it took a dose of 2 mg/kg to reach the 50% effect level (ED50) and the “Gastric secretion (rats): % inhibition” value amounted to 10%. The ED50 in experiment [2] stood at 1 mg/kg.
For the compound `COc1ccnc(C[S+]([O-])c2nc3cc(OCC(F)(F)F)ccc3[nH]2)c1C` (stereo not shown) [Serial No. 10, 2-[(4-methoxy-3-methyl-2-pyridyl)methylsulfinyl]-5-(2,2,2-trifluoroethoxy)-1H-benzimidazole], in experiment [1], the ED25 is 0.5 mg/kg, the ED50 was 0.7 mg/kg and the “Gastric secretion (rats): % inhibition” value worked out at 25%. In addition, the ED50 in experiment [2] was 0.5 mg/kg.
